From US9457015B2, “2-aminothiazole derivative and anti-cancer composition comprising same as active ingredient” (Chung-Ang University Industry-Academic Cooperation …, priority 2012, dated 2016)

Tests used:
[1] = system: lung cancer cells (A549); assay: Cytotoxicity by MTT analysis, A549; assay type: cell-based
Description: (§1) Toxicity to cells was analyzed using 3-[4,5-dimethylthiazol-2-yl]-2,5-diphenyl-tetra zolium bromide (MTT) analysis. As cancer cells to be measured, 8.0×10^3 cells/mL was aliquoted on a 96-well culture dish and then the cells were cultured for 24 hours. The next day, the synthesized compound was dissolved in a medium according to each concentration, and diluted in a medium according to each concentration. The medium in which the compound was dissolved according to each concentration was added to a culture dish at […], dimethyl sulfoxide (DMSO) was added to a control well so as to have the same volume as the added compound. After the addition, the cells were cultured in an incubator in 5% CO2 at 37° C., and then survival capability of cells was measured at 24 hours and 48 hours after the culture. After the medium was removed, the cells were washed twice using PBS, then 200 μL of a solution containing 1 mg/mL of MTT (Sigma-Aldrich Chemical Co., USA) was added thereto, and then the cells were further cultured for 3 hours in a CO2 incubator at 37° C. The 96-well culture dish was centrifuged for 10 minutes at 2000 rpm to remove the MTT solution. […] The solution was added to the 96-well culture dish, and then absorbance was measured at 540 nm. Relative absorbance was calculated using absorbance according to concentration of drugs divided by absorbance of a control group (drug-untreated group).

[2] = system: colorectal cancer cells (HCT15); assay: Cytotoxicity by MTT analysis, HCT15; assay type: cell-based
Description: as §1

[3] = system: skin cancer cells (SK-MEL2); assay: Cytotoxicity by MTT analysis, SK-MEL2; assay type: cell-based
Description: as §1

[4] = system: prostate cancer cell line, PC3; assay: Cytotoxicity by MTT analysis, PC3; assay type: cell-based; conditions: PC3 prostate cancer cells
Description: The prostate cancer cell line, PC3 was obtained from Korean Cell Line Bank. After adding Rosewell Park Memorial Institute (RPMI) 1640 cell culture medium (LM001-01, WelGEN) containing 10% fetal bovine serum (FBS), 100 units/mL of penicillin and 100 μg/mL of streptomycin to a 100 Φ dish, cells were inoculated on the dish and cultured in a CO2 incubator (VS-9000C, vision) in 5% CO2/95% humidified air atmosphere at 37° C.
Toxicity to cells was analyzed using 3-[4,5-dimethylthiazol-2-yl]-2,5-diphenyl-tetra zolium bromide (MTT) analysis. As cancer cells to be measured, 8.0×10^3 cells/mL was aliquoted on a 96-well culture dish and then the cells were cultured for 24 hours. The next day, the synthesized compound was dissolved in a medium according to each concentration, and diluted in a medium according to each concentration. […] After the addition, the cells were cultured in an incubator in 5% CO2 at 37° C., and then survival capability of cells was measured at 24 hours and 48 hours after the culture. […] The solution was added to the 96-well culture dish, and then absorbance was measured at 540 nm. Relative absorbance was calculated using absorbance according to concentration of drugs divided by absorbance of a control group (drug-untreated group).

[5] = system: ovarian cancer cells (SK-OV-3); assay: Cytotoxicity by MTT analysis, SK-OV-3; assay type: cell-based; conditions: Homo sapiens, SK-OV-3, MTT analysis, read-out: IC50 (nM) SK-OV3 Ovarian cancer
Description: as §1

[6] = system: breast cancer cells (MCF7); assay: Cytotoxicity by MTT analysis, MCF7; assay type: cell-based; conditions: Homo sapiens
Description: as §1

[7] = system: prostate cancer cell line, PC3, transplanted; assay: Anti-cancer effect in vivo in mice with transplanted PC3 tumors; conditions: 2 mg/kg/day i.v. for four consecutive days, compared 7 days after stoppage
Description: The anti-cancer activity of the compound according to the present invention, HF-154 was measured in in-vivo using mice in which a prostate cancer cell line, PC3, was transplanted. An experimental group included a group of two mice to which an excipient (vehicle) was administered and a group of four mice to which the compound according to the present invention, HF-154, was administered. The compound according to the present invention, HF-154, was administered to each mouse in an amount of 2 mg/kg/day (100 μL i.v.). First, after administration for four consecutive days, administration was stopped, and tumor growth was compared at 7 days after the stoppage.

O=C(CCc1ccco1)Nc1ncc(-c2ccc(F)cc2)s1 [HF-154, N-(5-(4-fluorophenyl)thiazol-2-yl)-3-(furan-2-yl)propanamide]
IC50 [1]: ~3 nM | IC50 ([2]; Homo sapiens, HCT-15, MTT analysis): 1 to 5 nM | IC50 ([2]; MTT analysis): ~1 nM | IC50 [3]: ~5 nM | IC50 [4]: ~0.1 nM | IC50 [5]: ~0.5 nM | IC50 [6]: ~0.3 nM | size of the tumor compared to the excipient administration group [7]: significantly reduced
